Experimental data published in patent US20110207723A1, “NOVEL FUSED AMINODIHYDROTHIAZINE DERIVATIVE” (EISAI R&D MANAGEMENT CO., LTD., priority 2008, published 2011).

These compounds were tested on Aβ42 production (assay: Quantification of Aβ peptide in culture of neurons from rat fetus brain (Aβ42 ELISA)). Details: Neuron, 72 h, rat primary neuronal culture (embryonic day 18 Wistar rat cerebral cortex), medium collected three days after addition of compound, read-out: Aβ42 production reducing effect IC50.
Type: cell-based
Experimental: Quantification of Aβ Peptide in Culture of Neurons from Rat Fetus Brain
Primary neuronal cultures were prepared from the cerebral cortex of embryonic day 18 Wistar rats (Charles River Japan, Yokohama, Japan). Specifically, the embryos were aseptically removed from pregnant rats under ether anesthesia. The brain was isolated from the embryo and immersed in an ice-cold L-15 medium (such as Invitrogen Corp. Cat #11415-064, Carlsbad, Calif., USA, or SIGMA L1518). The cerebral cortex was collected from the isolated brain under a stereoscopic microscope. The cerebral cortex fragments collected were enzymatically treated in an enzyme solution containing 0.25% trypsin (Invitrogen Corp. Cat #15050-065, Carlsbad, Calif., USA) and 0.01% DNase (Sigma D5025, St. Louis, Mo., USA) at 37° C. for 30 minutes to disperse the cells. Here, the enzymatic reaction was stopped by adding inactivated horse serum to the solution. The enzymatically treated solution was centrifuged at 1,500 rpm for five minutes to remove the supernatant. 5 to 10 ml of a medium was added to the resulting cell mass. Neurobasal medium (Invitrogen Corp. Cat #21103-049, Carlsbad, Calif., USA) supplemented with 2% B27 supplement (Invitrogen Corp. Cat #17504-044, Carlsbad, Calif., USA), 25 μM 2-mercaptoethanol (2-ME, WAKO Cat #139-06861, Osaka, Japan), 0.5 mM L-glutamine (Invitrogen Corp. Cat #25030-081, Carlsbad, Calif., USA), and Antibiotics-Antimycotics (Invitrogen Corp. Cat #15240-062, Carlsbad, Calif., USA) was used as the medium (Neurobasal/B27/2-ME). However, the above Neurobasal medium not supplemented with 2-ME (Neurobasal/B27) was used for the assay. The cells were redispersed by mild pipetting of the cell mass to which the medium was added. The cell dispersion was filtered through a 40-μm nylon mesh (Cell Strainer, Cat #35-2340, Becton Dickinson Labware, Franklin Lakes, N.J., USA) to remove the remaining cell mass, and thus a neuronal cell suspension was obtained. The neuronal cell suspension was diluted with the medium and then plated in a volume of 100 μl/well at an initial cell density of 5×10^5 cells/cm^2 in a 96-well polystyrene culture plate pre-coated with poly-L or D-lysine (Falcon Cat #35-3075, Becton Dickinson Labware, Franklin Lakes, N.J., USA coated with poly-L-lysine using the method shown below, or BIOCOAT™ cell environments Poly-D-lysine cell ware 96-well plate, Cat #35-6461, Becton Dickinson Labware, Franklin Lakes, N.J., USA). Poly-L-lysine coating was carried out as follows. 100 μg/ml of a poly-L-lysine (SIGMA P2636, St. Louis, Mo., USA) solution was aseptically prepared with a 0.15 M borate buffer (pH 8.5). […] of the solution was added to the 96-well polystyrene culture plate and incubated at room temperature for one or more hours or at 4° C. overnight or longer. Thereafter, the coated 96-well polystyrene culture plate was washed with sterile water four or more times, and then dried or rinsed with, for example, sterile PBS or medium, and used for cell plating. The plated cells were cultured in the culture plate at 37° C. in 5% CO2-95% air for one day. Then, the total amount of the medium was replaced with a fresh Neurobasal/B27/2-ME medium, and then the cells were cultured for further three days.
The drug was added to the culture plate on Day 4 of culture as follows. The total amount of the medium was removed from the wells, and 180 μl/well of Neurobasal medium not containing 2-ME and containing 2% B-27 (Neurobasal/B27) was added thereto. A solution of the test compound in dimethyl sulfoxide (hereinafter abbreviated as DMSO) was diluted with Neurobasal/B27 to a concentration 10-fold higher than the final concentration. 20 μl/well of the dilution was added to and sufficiently mixed with the medium. The final DMSO concentration was 1% or less. Only DMSO was added to the control group.
The cells were cultured for three days after addition of the compound, and the total amount of the medium was collected. […]

Question: How did the IC50 turn out when `NC1=N[C@@]2(c3cc(NC(=O)c4ccc(Cl)cn4)ccc3F)COCC[C@H]2CS1` (single isomer, unassigned) [Example 49, N-[3-((4aR*,8aS*)-2-amino-4,4a,5,6-tetrahydro-7-oxa-3-thia-1-azanaphthalen-8a-yl)-4-fluorophenyl]-5-chloropyridine-2-carboxamide] was run?
Answer: 2 nM

Question: For `NC1=N[C@@]2(c3cc(NC(=O)c4ccc(Br)cn4)ccc3F)COCC[C@H]2CS1` (single isomer, unassigned) [Example 50, N-[3-((4aR*,8aS*)-2-amino-4,4a,5,6-tetrahydro-7-oxa-3-thia-1-azanaphthalen-8a-yl)-4-fluorophenyl]-5-bromopyridine-2-carboxamide], which IC50 is on record?
Answer: 2 nM

Question: Which IC50 does the source give for `NC1=N[C@@]2(c3cc(NC(=O)c4ncc(F)cc4F)ccc3F)COCC[C@H]2CS1` (single isomer, unassigned) [Example 51, N-[3-((4aR*,8aS*)-2-amino-4,4a,5,6-tetrahydro-7-oxa-3-thia-1-azanaphthalen-8a-yl)-4-fluorophenyl]-3,5-difluoropyridine-2-carboxamide] here?
Answer: 6 nM

Question: With `NC1=N[C@@]2(c3cc(NC(=O)c4ncc(Cl)cc4Cl)ccc3F)COCC[C@H]2CS1` (single isomer, unassigned) [Example 52, N-[3-((4aR*,8aS*)-2-amino-4,4a,5,6-tetrahydro-7-oxa-3-thia-1-azanaphthalen-8a-yl)-4-fluorophenyl]-3,5-dichloropyridine-2-carboxamide] as the compound, how does the IC50 read?
Answer: 2 nM

Question: How did the IC50 turn out when `NC1=N[C@@]2(c3cc(NC(=O)c4ccc(F)cn4)ccc3F)COCC[C@H]2CS1` (single isomer, unassigned) [Example 53, N-[3-((4aR*,8aS*)-2-amino-4,4a,5,6-tetrahydro-7-oxa-3-thia-1-azanaphthalen-8a-yl)-4-fluorophenyl]-5-fluoropyridine-2-carboxamide] was run?
Answer: 5.6 nM

Question: For `NC1=N[C@@]2(c3cc(NC(=O)c4ncc(Br)cc4Br)ccc3F)COCC[C@H]2CS1` (single isomer, unassigned) [Example 54, N-[3-((4aR*,8aS*)-2-amino-4,4a,5,6-tetrahydro-7-oxa-3-thia-1-azanaphthalen-8a-yl)-4-fluorophenyl]-3,5-dibromopyridine-2-carboxamide], which IC50 is on record?
Answer: 2 nM

Question: With `NC1=N[C@@]2(c3cc(NC(=O)c4ccc(C(F)(F)F)cn4)ccc3F)COCC[C@H]2CS1` (single isomer, unassigned) [Example 55, N-[3-((4aR*,8aS*)-2-amino-4,4a,5,6-tetrahydro-7-oxa-3-thia-1-azanaphthalen-8a-yl)-4-fluorophenyl]-5-trifluoromethylpyridine-2-carboxamide] as the compound, how does the IC50 read?
Answer: 1.4 nM

Question: With `NC1=N[C@@]2(c3cc(NC(=O)c4ccc(C(F)F)cn4)ccc3F)COCC[C@H]2CS1` (single isomer, unassigned) [Example 56, N-[3-((4aR*,8aS*)-2-amino-4,4a,5,6-tetrahydro-7-oxa-3-thia-1-azanaphthalen-8a-yl)-4-fluorophenyl]-5-difluoromethylpyridine-2-carboxamide] as the compound, how does the IC50 read?
Answer: 3 nM

Question: With `NC1=N[C@@]2(c3cc(NC(=O)c4cnc(C(F)F)cn4)ccc3F)COCC[C@H]2CS1` (single isomer, unassigned) [Example 57, N-[3-((4aR*,8aS*)-2-amino-4,4a,5,6-tetrahydro-7-oxa-3-thia-1-azanaphthalen-8a-yl)-4-fluorophenyl]-5-difluoromethylpyrazine-2-carboxamide] as the compound, how does the IC50 read?
Answer: 2 nM

Question: How did the IC50 turn out when `NC1=N[C@@]2(c3cc(NC(=O)c4ccc(OC(F)F)cn4)ccc3F)COCC[C@H]2CS1` (single isomer, unassigned) [Example 58, N-[3-((4aR*,8aS*)-2-amino-4,4a,5,6-tetrahydro-7-oxa-3-thia-1-azanaphthalen-8a-yl)-4-fluorophenyl]-5-difluoromethoxypyridine-2-carboxamide] was run?
Answer: 4 nM

Question: Which IC50 does the source give for `N#Cc1ccc(C(=O)Nc2csc(C34COCCC3CSC(N)=N4)c2)nc1` (stereo in doubt) [Example 64, N-[5-((4aR*,8aS*)-2-amino-4,4a,5,6-tetrahydro-7-oxa-3-thia-1-azanaphthalen-8a-yl)thiophen-3-yl]-5-cyanopyridine-2-carboxamide] here?
Answer: 14 nM

Question: Which IC50 does the source give for `N#Cc1ccc(C(=O)Nc2ccc(F)c([C@]34COC[C@@H](F)[C@H]3CSC(N)=N4)c2)nc1` [Example 16, N-[3-((4aS,5S,8aS)-2-amino-5-fluoro-4,4a,5,6-tetrahydro-7-oxa-3-thia-1-azanaphthalen-8a-yl)-4-fluorophenyl]-5-cyanopyridine-2-carboxamide] here?
Answer: 1.1 nM

Question: How did the IC50 turn out when `NC1=N[C@@]2(c3cc(NC(=O)c4cnc(C(F)F)cn4)ccc3F)COC[C@@H](F)[C@H]2CS1` [Example 17, N-[3-((4aS,5S,8aS)-2-amino-5-fluoro-4,4a,5,6-tetrahydro-7-oxa-3-thia-1-azanaphthalen-8a-yl)-4-fluorophenyl]-5-difluoromethylpyrazine-2-carboxamide] was run?
Answer: 4 nM

Question: How did the IC50 turn out when `NC1=N[C@@]2(c3cc(NC(=O)c4ccc(Cl)cn4)ccc3F)COC[C@@H](F)[C@H]2CS1` [Example 18, N-[3-((4aS,5S,8aS)-2-amino-5-fluoro-4,4a,5,6-tetrahydro-7-oxa-3-thia-1-azanaphthalen-8a-yl)-4-fluorophenyl]-5-chloropyridine-2-carboxamide] was run?
Answer: 7 nM

Question: `NC1=N[C@@]2(c3cc(NC(=O)c4ccc(C(F)(F)F)cn4)ccc3F)COC[C@@H](F)[C@H]2CS1` [Example 19, N-[3-((4aS,5S,8aS)-2-amino-5-fluoro-4,4a,5,6-tetrahydro-7-oxa-3-thia-1-azanaphthalen-8a-yl)-4-fluorophenyl]-5-trifluoromethylpyridine-2-carboxamide] was tested. Which IC50 did it give?
Answer: 2 nM

Question: For `NC1=N[C@@]2(c3cc(NC(=O)c4ccc(OC(F)F)cn4)ccc3F)COC[C@@H](F)[C@H]2CS1` [Example 20, N-[3-((4aS,5S,8aS)-2-amino-5-fluoro-4,4a,5,6-tetrahydro-7-oxa-3-thia-1-azanaphthalen-8a-yl)-4-fluorophenyl]-5-difluoromethoxypyridine-2-carboxamide], which IC50 is on record?
Answer: 9 nM

Question: For `NC1=N[C@@]2(c3cc(NC(=O)c4cnc(OC(F)F)cn4)ccc3F)COC[C@@H](F)[C@H]2CS1` [Example 22, N-[3-((4aS,5S,8aS)-2-amino-5-fluoro-4,4a,5,6-tetrahydro-7-oxa-3-thia-1-azanaphthalen-8a-yl)-4-fluorophenyl]-5-difluoromethoxypyrazine-2-carboxamide], which IC50 is on record?
Answer: 4 nM

Question: Which IC50 does the source give for `NC1=N[C@@]2(c3cc(NC(=O)c4ccc(Cl)cn4)ccc3F)CO[C@@H](CO)C[C@H]2CS1` [Example 33, N-[3-((4aR,6R,8aS)-2-amino-6-hydroxymethyl-4,4a,5,6-tetrahydro-7-oxa-3-thia-1-azanaphthalen-8a-yl)-4-fluorophenyl]-5-chloropyridine-2-carboxamide] here?
Answer: 1.1 nM

Question: Which IC50 does the source give for `N#Cc1ccc(C(=O)Nc2ccc(F)c([C@]34CO[C@@H](CO)C[C@H]3CSC(N)=N4)c2)nc1` [Example 34, N-[3-((4aR,6R,8aS)-2-amino-6-hydroxymethyl-4,4a,5,6-tetrahydro-7-oxa-3-thia-1-azanaphthalen-8a-yl)-4-fluorophenyl]-5-cyanopyridine-2-carboxamide] here?
Answer: 2 nM

Question: `N#Cc1ccc(C(=O)Nc2ccc(F)c([C@]34CO[C@@H](CF)C[C@H]3CSC(N)=N4)c2)nc1` [Example 44, N-[3-((4aR,6R,8aS)-2-amino-6-fluoromethyl-4,4a,5,6-tetrahydro-7-oxa-3-thia-1-azanaphthalen-8a-yl)-4-fluorophenyl]-5-cyanopyridine-2-carboxamide] was tested. Which IC50 did it give?
Answer: 0.7 nM
